Results: patent US9725459B2, “3-oxo-tetrahydro-furo[3,2-B]pyrrol-4(5H)-yl) derivatives I” (GRÜNENTHAL GMBH, priority 2014, dated 2017)
Where two headings read alike, the source gives them in different places.

What was measured:
Type in all cases: biochemical
human cathepsin S (CatS) = human cathepsin S (CatS) (Homo sapiens (Human), UniProt P25774); experiment: CatS functional enzyme assay; details: for Selectivity Ki(hCatS)/Ki(hCatK): ratio Ki(hCatS)/Ki(hCatK); for Ki: read-out: hCatS, Ki
Outline: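 Recombinant human enzymes were incubated 10 min at RT with AMC substrate: CatS 0.0007 mU/well with Z-VVR-AMC 5 µM; CatK 0.00175 mU/well with Z-FR-AMC 40 µM; CatL 0.000874 mU/well with Z-VVR-AMC 40 µM. Fluorescence gave IC50, converted to Ki by Cheng-Prusoff.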

human cathepsin K (CatK) = human cathepsin K (CatK) (Homo sapiens (Human), UniProt P43235); experiment: CatK functional enzyme assay; details: recombinant human CatK, substrate Z-FR-AMC 40 μM, pH 5.5; Ki by Cheng Prusoff equation; read-out: hCatK, Ki
Outline: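 Recombinant human enzymes in 50 mM NaOAc, 10 mM EDTA, 1 mM DTT, 0.01% Triton X-100, pH 5.5, 10 min at RT. CatK: 0.00175 mU/well with 40 μM Z-FR-AMC; CatL: 0.000874 mU/well with 40 μM Z-VVR-AMC. AMC fluorescence read; IC50 converted to Ki via Cheng–Prusoff.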

human cathepsin L (CatL) = human cathepsin L (CatL) (Homo sapiens (Human), UniProt P07711); experiment: CatL functional enzyme assay; details: read-out: hCatL, inhibition [%] at 31.6 μM
[1] = recombinant human CatS, substrate Z-VVR-AMC 5 μM, pH 6.5, Ki by Cheng Prusoff equation

human cathepsin K (CatK), sequence (P43235 115-329): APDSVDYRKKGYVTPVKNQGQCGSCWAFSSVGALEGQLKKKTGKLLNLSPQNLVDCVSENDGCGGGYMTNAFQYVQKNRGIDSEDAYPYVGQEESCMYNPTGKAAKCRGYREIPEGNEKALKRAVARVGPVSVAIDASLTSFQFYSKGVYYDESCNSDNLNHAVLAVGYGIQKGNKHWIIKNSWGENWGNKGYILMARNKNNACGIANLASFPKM
human cathepsin L (CatL), sequence (P07711 114-333): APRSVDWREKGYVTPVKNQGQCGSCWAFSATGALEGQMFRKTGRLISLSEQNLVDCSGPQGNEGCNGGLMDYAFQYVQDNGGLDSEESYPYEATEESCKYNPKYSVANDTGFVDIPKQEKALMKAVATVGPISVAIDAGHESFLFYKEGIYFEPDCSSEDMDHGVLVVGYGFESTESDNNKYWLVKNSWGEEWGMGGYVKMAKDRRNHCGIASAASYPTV
human cathepsin S (CatS), sequence (P25774 115-331): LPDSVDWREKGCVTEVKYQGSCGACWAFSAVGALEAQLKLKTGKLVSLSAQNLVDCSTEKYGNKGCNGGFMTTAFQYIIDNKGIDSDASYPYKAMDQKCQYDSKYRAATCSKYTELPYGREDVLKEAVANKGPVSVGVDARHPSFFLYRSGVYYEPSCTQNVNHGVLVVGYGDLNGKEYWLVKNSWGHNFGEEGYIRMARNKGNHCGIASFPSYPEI

Row | Compound | Selectivity Ki(hCatS)/Ki(hCatK) (human cathepsin S (CatS)) | Ki (human cathepsin S (CatS); [1]) [nM] | Ki (human cathepsin K (CatK)) [nM] | inhibition at 31.6 µM (human cathepsin L (CatL)) [%] | Ki (human cathepsin S (CatS)) [nM]
1 | O=C(N[C@H](C(=O)N1C[C@H](Cl)[C@H]2OCC(=O)[C@H]21)C1CCCCC1)c1ccc(-c2ccc(C3CC3)nc2)s1 [Example 63, N-((S)-2-((3aS,6S,6aS)-6-chloro-3-oxotetrahydro-2H-furo[3,2-b]pyrrol-4(5H)-yl)-1-cyclohexyl-2-oxoethyl)-5-(6-cyclopropylpyridin-3-yl)thiophene-2-carboxamide] | 27.6 | 525 | 19 | 1 | 
2 | O=C(N[C@H](C(=O)N1C[C@H](Cl)[C@H]2OCC(=O)[C@H]21)C1CCCCC1)c1ccc(-c2ccncc2)o1 [Example 12, N-((S)-2-((3aS,6S,6aS)-6-chloro-3-oxotetrahydro-2H-furo[3,2-b]pyrrol-4(5H)-yl)-1-cyclohexyl-2-oxoethyl)-5-(pyridin-4-yl)furan-2-carboxamide] | 10.4 | 521 | 50 | 18 | 
3 | Cc1ccc(-c2cnc(C(=O)N[C@H](C(=O)N3C[C@H](Cl)[C@H]4OCC(=O)[C@H]43)C3CCCCC3)s2)cn1 [Example 42, N-((S)-2-((3aS,6S,6aS)-6-chloro-3-oxotetrahydro-2H-furo[3,2-b]pyrrol-4(5H)-yl)-1-cyclohexyl-2-oxoethyl)-5-(6-methylpyridin-3-yl)thiazole-2-carboxamide] | 25.4 | 356 | 14 | 18 | 
4 | O=C(N[C@H](C(=O)N1C[C@H](Cl)[C@H]2OCC(=O)[C@H]21)C1CCCCC1)c1ncc(-c2ccc(Cl)nc2)s1 [Example 52, N-((S)-2-((3aS,6S,6aS)-6-chloro-3-oxotetrahydro-2H-furo[3,2-b]pyrrol-4(5H)-yl)-1-cyclohexyl-2-oxoethyl)-5-(6-chloropyridin-3-yl)thiazole-2-carboxamide] | 14.5 | 203 | 14 | 7 | 
5 | Cc1cc(-c2cnc(C(=O)N[C@H](C(=O)N3C[C@H](Cl)[C@H]4OCC(=O)[C@H]43)C3CCCCC3)s2)ccn1 [Example 51, N-((S)-2-((3aS,6S,6aS)-6-chloro-3-oxotetrahydro-2H-furo[3,2-b]pyrrol-4(5H)-yl)-1-cyclohexyl-2-oxoethyl)-5-(2-methylpyridin-4-yl)thiazole-2-carboxamide] | 24.7 | 173 | 7 | 6 | 
6 | N#Cc1cncc(-c2cnc(C(=O)N[C@H](C(=O)N3C[C@H](Cl)[C@H]4OCC(=O)[C@H]43)C3CCCCC3)s2)c1 [Example 43, N-((S)-2-((3aS,6S,6aS)-6-chloro-3-oxotetrahydro-2H-furo[3,2-b]pyrrol-4(5H)-yl)-1-cyclohexyl-2-oxoethyl)-5-(5-cyanopyridin-3-yl)thiazole-2-carboxamide] | 3.2 | 769 | 243 | 16 | 
7 | O=C(N[C@H](C(=O)N1C[C@H](Cl)[C@H]2OCC(=O)[C@H]21)C1CCCCC1)c1ccc(-c2ccncc2)s1 [Example 3, N-((S)-2-((3aS,6S,6aS)-6-chloro-3-oxotetrahydro-2H-furo[3,2-b]pyrrol-4(5H)-yl)-1-cyclohexyl-2-oxoethyl)-5-(pyridin-4-yl)thiophene-2-carboxamide] | 34.3 |  | 3 | 5 | 103
8 | O=C(N[C@H](C(=O)N1C[C@H](Cl)[C@H]2OCC(=O)[C@H]21)C1CCCCC1)c1ccc(-c2cnc(C(F)(F)F)nc2)s1 [Example 61, N-((S)-2-((3aS,6S,6aS)-6-chloro-3-oxotetrahydro-2H-furo[3,2-b]pyrrol-4(5H)-yl)-1-cyclohexyl-2-oxoethyl)-5-(2-(trifluoromethyl)pyrimidin-5-yl)thiophene-2-carboxamide] | 4.0 | 302 | 76 | 0 | 
9 | O=C(N[C@H](C(=O)N1C[C@H](Cl)[C@H]2OCC(=O)[C@H]21)C1CCCCC1)c1ccc(-c2cnc(C3CC3)nc2)s1 [Example 55, N-((S)-2-((3aS,6S,6aS)-6-chloro-3-oxotetrahydro-2H-furo[3,2-b]pyrrol-4(5H)-yl)-1-cyclohexyl-2-oxoethyl)-5-(2-cyclopropylpyrimidin-5-yl)thiophene-2-carboxamide] | 2.4 | 70 | 29 | 13 | 
10 | O=C(N[C@H](C(=O)N1C[C@H](Cl)[C@H]2OCC(=O)[C@H]21)C1CCCCC1)c1ccc(-c2cnccn2)o1 [Example 25, N-((S)-2-((3aS,6S,6aS)-6-chloro-3-oxotetrahydro-2H-furo[3,2-b]pyrrol-4(5H)-yl)-1-cyclohexyl-2-oxoethyl)-5-(pyrazin-2-yl)furan-2-carboxamide] | 5.4 | 833 | 153 | 20 | 

Results, then the compound that gave them:

Row | Selectivity Ki(hCatS)/Ki(hCatK) (human cathepsin S (CatS)) | Ki (human cathepsin S (CatS); [1]) [nM] | Ki (human cathepsin K (CatK)) [nM] | inhibition at 31.6 µM (human cathepsin L (CatL)) [%] | Ki (human cathepsin S (CatS)) [nM] | Compound
11 | 18.6 | 335 | 18 | 0 |  | Cc1cc(-c2ccc(C(=O)N[C@H](C(=O)N3C[C@H](Cl)[C@H]4OCC(=O)[C@H]43)C3CCCCC3)s2)c(C)cn1 [Example 88, N-((S)-2-((3aS,6S,6aS)-6-chloro-3-oxotetrahydro-2H-furo[3,2-b]pyrrol-4(5H)-yl)-1-cyclohexyl-2-oxoethyl)-5-(2,5-dimethylpyridin-4-yl)thiophene-2-carboxamide]
12 | 21.3 | 469 | 22 | 9 |  | O=C(N[C@H](C(=O)N1C[C@H](Cl)[C@H]2OCC(=O)[C@H]21)C1CCCCC1)c1ccc(-c2ncncc2F)s1 [Example 36, N-((S)-2-((3aS,6S,6aS)-6-chloro-3-oxotetrahydro-2H-furo[3,2-b]pyrrol-4(5H)-yl)-1-cyclohexyl-2-oxoethyl)-5-(5-fluoropyrimidin-4-yl)thiophene-2-carboxamide]
13 | 21.7 | 347 | 16 | 9 |  | O=C(N[C@H](C(=O)N1C[C@H](Cl)[C@H]2OCC(=O)[C@H]21)C1CCCCC1)c1ccc(-c2ccc(Cl)nc2)s1 [Example 17, N-((S)-2-((3aS,6S,6aS)-6-chloro-3-oxotetrahydro-2H-furo[3,2-b]pyrrol-4(5H)-yl)-1-cyclohexyl-2-oxoethyl)-5-(6-chloropyridin-3-yl)thiophene-2-carboxamide]
14 | 28.7 |  | 14 | 3 | 402 | O=C(N[C@H](C(=O)N1C[C@H](Cl)[C@H]2OCC(=O)[C@H]21)C1CCCCC1)c1ccc(-c2ccccn2)s1 [Example 1, N-((S)-2-((3aS,6S,6aS)-6-chloro-3-oxotetrahydro-2H-furo[3,2-b]pyrrol-4(5H)-yl)-1-cyclohexyl-2-oxoethyl)-5-(pyridin-2-yl)thiophene-2-carboxamide]
15 | 12.1 | 133 | 11 | 18 |  | Cc1ncc(-c2ccc(C(=O)N[C@H](C(=O)N3C[C@H](Cl)[C@H]4OCC(=O)[C@H]43)C3CCCCC3)s2)c(C)n1 [Example 81, N-((S)-2-((3aS,6S,6aS)-6-chloro-3-oxotetrahydro-2H-furo[3,2-b]pyrrol-4(5H)-yl)-1-cyclohexyl-2-oxoethyl)-5-(2,4-dimethylpyrimidin-5-yl)thiophene-2-carboxamide]
16 | 16.6 | 92 | 6 | 20 |  | COc1cc(-c2ccc(C(=O)N[C@H](C(=O)N3C[C@H](Cl)[C@H]4OCC(=O)[C@H]43)C3CCCCC3)s2)ccn1 [Example 56, N-((S)-2-((3aS,6S,6aS)-6-chloro-3-oxotetrahydro-2H-furo[3,2-b]pyrrol-4(5H)-yl)-1-cyclohexyl-2-oxoethyl)-5-(2-methoxypyridin-4-yl)thiophene-2-carboxamide]
17 | 3.0 | 23 | 8 | 32 |  | COc1cc(-c2ccc(C(=O)N[C@H](C(=O)N3C[C@H](Cl)[C@H]4OCC(=O)[C@H]43)C3CCCCC3)s2)cnn1 [Example 71, N-((S)-2-((3aS,6S,6aS)-6-chloro-3-oxotetrahydro-2H-furo[3,2-b]pyrrol-4(5H)-yl)-1-cyclohexyl-2-oxoethyl)-5-(6-methoxypyridazin-4-yl)thiophene-2-carboxamide]
18 | 0.9 | 13 | 15 | 26 |  | CCc1cnnc(-c2ccc(C(=O)N[C@H](C(=O)N3C[C@H](Cl)[C@H]4OCC(=O)[C@H]43)C3CCCCC3)s2)c1 [Example 73, N-((S)-2-((3aS,6S,6aS)-6-chloro-3-oxotetrahydro-2H-furo[3,2-b]pyrrol-4(5H)-yl)-1-cyclohexyl-2-oxoethyl)-5-(5-ethylpyridazin-3-yl)thiophene-2-carboxamide]
